Measured values taken from patent US11564923B2, “Compounds and pharmaceutical compositions thereof for the treatment of inflammatory disorders” (Galapagos NV, priority 2017, dated 2023).

Key:
[1] = system: IFNα activation of STAT1 in PBMC; assay: IFNα activation of STAT1 in PBMC; type: cell-based; conditions: Homo sapiens; IFNα activation of STAT1 in PBMC; average IC50; read-out: IFNα signaling inhibitory potency IC50
Protocol: After these 2 wash steps the cell pellet is dissolved in ammonium chloride buffer (1.5 M NH4Cl, 100 mM NaHCO3 and 10 mM Na2.EDTA) for lysis of the red blood cells.
PBMC are treated with test compound for 30 min at 37° C. 5% CO2. […] After 30 min of test compound/vehicle pre-treatment, PBMC are stimulated for 30 min at 37° C. 5% CO2 with recombinant human IFNα (PeproTech, catalog number 300-02A) at a final concentration of 5 ng/mL by addition of 20 μL (10× concentrated) cytokine trigger to obtain a final volume of 200 μL per well.
After 30 min of cytokine stimulation, 200 μL of cell suspension is transferred to a 96-well V-bottom plate, centrifugated for 5 min at 1000 rpm to pellet cells, followed by removal of supernatant.
(§1) The percentage inhibition is calculated as: […]
RCLU(vehicle control): Relative Chemiluminescent signal determined in presence of vehicle and trigger
RCLU(test compound): Relative Chemiluminescent signal determined in presence of test compounds and trigger
RCLU(positive control): Relative Chemiluminescent signal determined in presence of positive control and trigger
PIN values are plotted for compounds tested in dose-response and average IC50 values are derived using GraphiPad Prism Software applying non-linear regression (sigmoidal) curve fitting.

[2] = biological target: T1, Recombinant human TYK2 catalytic domain (amino acids 871-1187) (Homo sapiens, UniProt P29597); assay: TYK2 radioactive assay polyGT substrate; type: biochemical; also: 0.1 µM ATP
T1 construct: catalytic domain (amino acids 871-1187)
T1 sequence (P29597 871-1187): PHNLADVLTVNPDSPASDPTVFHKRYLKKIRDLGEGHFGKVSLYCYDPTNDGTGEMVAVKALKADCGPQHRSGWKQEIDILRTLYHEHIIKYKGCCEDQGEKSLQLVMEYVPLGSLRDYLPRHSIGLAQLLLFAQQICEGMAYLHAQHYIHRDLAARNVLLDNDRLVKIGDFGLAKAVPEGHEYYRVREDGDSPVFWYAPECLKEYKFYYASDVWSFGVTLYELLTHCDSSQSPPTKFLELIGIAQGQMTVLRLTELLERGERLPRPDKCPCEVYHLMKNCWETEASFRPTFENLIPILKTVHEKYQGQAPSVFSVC
Protocol: After 120 min at 30° C., reactions were stopped by adding 25 μL/well of 150 mM phosphoric acid. […] Plates were washed 6 times with 300 μL per well of a 75 mM phosphoric acid solution and the bottom of the plates is sealed. […] Kinase activity is calculated by subtracting counts per min (cpm) obtained in the presence of a positive control inhibitor (10 μM staurosporine) from cpm obtained in the presence of vehicle. The ability of a test compound to inhibit this activity (or percentage inhibition) is determined as: […]
cpm test compound=cpm determined for sample with test compound present cpm control=cpm determined for sample with positive control inhibitor cpm vehicle=cpm determined in the presence of vehicle
Dose dilution series were prepared for the compounds enabling the testing of dose-response effects in the TYK2 assay and the calculation of the IC50 for each compound. Each compound is routinely tested at concentration of 20 μM followed by a 1/5 serial dilution, 10 points in a final concentration of 1% DMSO.

[3] = system: IL-12 activation of STAT4 in NK-92 cells; assay: IL-12 activation of STAT4 in NK-92 cells using AphaLISA SureFire technology; type: cell-based; conditions: Homo sapiens, NK92; IL-12 activation of STAT4 in NK-92 cells, AlphaLISA SureFire; average IC50; read-out: IL12 pSTAT4 IC50
Protocol: IL-2 is added freshly to the medium with each medium refreshment step. Cells are cultured in a humidified incubator at 37° C. 5% CO2.
A subcultured fraction of NK-92 cells is washed once in culture medium without rhIL-2 the day before the experiment and incubated overnight in a culture flask.
5% CO2. […] NK-92 cells are triggered with rhIL-12 for 30 min at 37° C. 5% CO2.
After 30 min of cytokine stimulation the cells are lysed by addition of 15 μL 5× lysis buffer (supplemented with the AlphaLISA kit). After 10 minutes, plates are frozen at −80° C. overnight and the next day the levels of phospho-STAT4 are quantified using the AlphaLISA SureFire ULTRA p-STAT4 (Tyr693) (Perkin Elmer, Catalogue number ALSU-PST4-A10K) according to the manufacturers instructions. AlphaLISA signal (relative light units) is measured using an Envision (Perkin Elmer).
as §1
RLU(trigger/veh): Relative lumescent signal determined in presence of vehicle and trigger
RLU(test compound): Relative luminescent signal determined in presence of test compounds and trigger
PIN values are plotted for compounds tested in dose-response and IC50 values are derived using GraphPad Prism Software applying non-linear regression (sigmoidal) curve fitting. The data are expressed as the average IC50 from different experiments.

| IC50 [2] | IC50 [3] | Compound | IC50 [1] |
| --- | --- | --- | --- |
| 3.66 nM | 347 nM | Cc1cc(C#N)ncc1Oc1cc(Nc2ccc(C(=O)N3C[C@@H](C)O[C@H](C)C3)cn2)c2ncn(C)c2n1 (racemic) [Compound 149, 4-methyl-5-[3-methyl-7-[[5-[rac-(2R,6R)-2,6-dimethylmorpholine-4-carbonyl]pyridin-2-yl]amino]imidazo[4,5-b]pyridin-5-yl]oxypyridine-2-carbonitrile] | 218 nM |
| 0.59 nM | 133 nM | CCc1cc(C#N)ncc1Oc1cc(Nc2ccc(C(=O)N3CCOCC3)cn2)c2ncn(C)c2n1 [Compound 7, 4-Ethyl-5-{3-methyl-7-[5-(morpholine-4-carbonyl)-pyridin-2-ylamino]-3H-imidazo[4,5-b]pyridin-5-yloxy}-pyridine-2-carbonitrile] | 49 nM |
| 9.69 nM | 3530 nM | Cc1cc(C#N)ncc1Oc1cc(Nc2ccc(N3CC(CN(C)C)C3)nn2)c2ncn(C)c2n1 [Compound 40, 5-{7-[6-(3-Dimethylaminomethyl-azetidin-1-yl)-pyridazin-3-ylamino]-3-methyl-3H-imidazo[4,5-b]pyridin-5-yloxy}-4-methyl-pyridine-2-carbonitrile] | 115 nM |
| 1.58 nM | 49 nM | Cc1cc(C#N)ncc1Oc1cc(Nc2ccc(N3C[C@@H](C)O[C@@H](C)C3)nn2)c2ncn(C)c2n1 [Compound 43, (±)-5-{7-[6-((2R,6S)-2,6-Dimethyl-morpholin-4-yl)-pyridazin-3-ylamino]-3-methyl-3H-imidazo[4,5-b]pyridin-5-yloxy}-4-methyl-pyridine-2-carbonitrile] | 70 nM |
| 1.97 nM | 50 nM | Cc1cc(C#N)ncc1Oc1cc(Nc2ccc(N3CCO[C@@H](C)C3)nn2)c2ncn(C)c2n1 [Compound 44, 4-Methyl-5-{3-methyl-7-[6-((S)-2-methyl-morpholin-4-yl)-pyridazin-3-ylamino]-3H-imidazo[4,5-b]pyridin-5-yloxy}-pyridine-2-carbonitrile] | 79 nM |
| 1.47 nM | 210 nM | Cc1cc(C#N)ncc1Oc1cc(Nc2ccc(C(=O)N3CCN(C(C)C)CC3)cn2)c2ncn(C)c2n1 [Compound 46, 4-methyl-5-[3-methyl-7-[[5-(4-propan-2-ylpiperazine-1-carbonyl)pyridin-2-yl]amino]imidazo[4,5-b]pyridin-5-yl]oxypyridine-2-carbonitrile] | 76 nM |
| 2.02 nM | 84 nM | Cc1cc(C#N)ncc1Oc1cc(Nc2ccc(C(=O)N3CCN(C4CCC4)CC3)cn2)c2ncn(C)c2n1 [Compound 47, 5-[7-[[5-(4-cyclobutylpiperazine-1-carbonyl)pyridin-2-yl]amino]-3-methylimidazo[4,5-b]pyridin-5-yl]oxy-4-methylpyridine-2-carbonitrile] | 52 nM |
| 5.54 nM | 248 nM | Cc1cc(C#N)ncc1Oc1cc(Nc2ccc(N3CCN(C)CC3)cn2)c2ncn(C)c2n1 [Compound 50, 4-methyl-5-[3-methyl-7-[[5-(4-methylpiperazin-1-yl)pyridin-2-yl]amino]imidazo[4,5-b]pyridin-5-yl]oxypyridine-2-carbonitrile] | 95 nM |
| 2.05 nM | 190 nM | Cc1cc(C#N)ncc1Oc1cc(Nc2ccc(C(=O)N3CC(O)(C4CC4)C3)cn2)c2ncn(C)c2n1 [Compound 113, 5-[7-[[5-(3-cyclopropyl-3-hydroxy-azetidine-1-carbonyl)-2-pyridyl]amino]-3-methyl-imidazo[4,5-b]pyridin-5-yl]oxy-4-methyl-pyridine-2-carbonitrile] | – |
| 2.76 nM | – | Cc1cc(C#N)ncc1Oc1cc(Nc2ccc(C(=O)N(C)CCO)cn2)c2ncn(C)c2n1 [Compound 136, 6-[[5-(6-cyano-4-methylpyridin-3-yl)oxy-3-methylimidazo[4,5-b]pyridin-7-yl]amino]-N-(2-hydroxyethyl)-N-methylpyridine-3-carboxamide] | – |
| 4.55 nM | – | Cc1cc(C#N)ncc1Oc1cc(Nc2ccc(N3CC(N(C)C)C3)nn2)c2ncn(C)c2n1 [Compound 143, 5-[7-[[6-[3-(dimethylamino)azetidin-1-yl]pyridazin-3-yl]amino]-3-methylimidazo[4,5-b]pyridin-5-yl]oxy-4-methylpyridine-2-carbonitrile] | – |
| 1.15 nM | – | Cc1cc(C#N)ncc1Oc1cc(Nc2ccc(C(=O)N3CCOC[C@H]3C)cn2)c2ncn(C)c2n1 [Compound 146, 4-methyl-5-[3-methyl-7-[[5-[(3R)-3-methylmorpholine-4-carbonyl]pyridin-2-yl]amino]imidazo[4,5-b]pyridin-5-yl]oxypyridine-2-carbonitrile] | 122 nM |
| 12.5 nM | – | Cc1cc(C#N)ncc1Oc1cc(Nc2ccc(N3C[C@H]4C[C@@H]3CN4C)nn2)c2ncn(C)c2n1 [Compound 152, 4-methyl-5-[3-methyl-7-[[6-[(1R,4R)-5-methyl-2,5-diazabicyclo[2.2.1]heptan-2-yl]pyridazin-3-yl]amino]imidazo[4,5-b]pyridin-5-yl]oxypyridine-2-carbonitrile] | – |
| 2.05 nM | – | Cc1cc(C#N)ncc1Oc1cc(Nc2ccc(C(=O)N3CCOC(C(F)(F)F)C3)cn2)c2ncn(C)c2n1 (stereo not shown) [Compound 155, 4-methyl-5-[3-methyl-7-[[5-[2-(trifluoromethyl)morpholine-4-carbonyl]pyridin-2-yl]amino]imidazo[4,5-b]pyridin-5-yl]oxypyridine-2-carbonitrile] | – |
| 1.75 nM | – | Cc1cc(C#N)ncc1Oc1cc(Nc2ccc(C(=O)N3CCOC(C4CC4)C3)cn2)c2ncn(C)c2n1 (stereo not shown) [Compound 156, 5-[7-[[5-(2-cyclopropylmorpholine-4-carbonyl)pyridin-2-yl]amino]-3-methylimidazo[4,5-b]pyridin-5-yl]oxy-4-methylpyridine-2-carbonitrile] | – |
| 0.97 nM | – | Cc1cc(C#N)ncc1Oc1cc(Nc2ccc(C(=O)N3CCOC[C@H]3C(C)C)cn2)c2ncn(C)c2n1 [Compound 157, 4-methyl-5-[3-methyl-7-[[5-[(3R)-3-propan-2-ylmorpholine-4-carbonyl]pyridin-2-yl]amino]imidazo[4,5-b]pyridin-5-yl]oxypyridine-2-carbonitrile] | – |
| 1.02 nM | – | Cc1cc(C#N)ncc1Oc1cc(Nc2ccc(C(=O)N3CCOCC3C3CC3)cn2)c2ncn(C)c2n1 (stereo not shown) [Compound 159, 5-[7-[[5-(3-cyclopropylmorpholine-4-carbonyl)pyridin-2-yl]amino]-3-methylimidazo[4,5-b]pyridin-5-yl]oxy-4-methylpyridine-2-carbonitrile] | – |
| 1.39 nM | – | Cc1cc(C#N)ncc1Oc1cc(Nc2ccc(C(=O)N3CCOC(C#N)C3)cn2)c2ncn(C)c2n1 (stereo not shown) [Compound 160, 4-[6-[[5-(6-cyano-4-methylpyridin-3-yl)oxy-3-methylimidazo[4,5-b]pyridin-7-yl]amino]pyridine-3-carbonyl]morpholine-2-carbonitrile] | – |
| 2.06 nM | – | Cc1cc(C#N)ncc1Oc1cc(Nc2ccc(C(=O)N3CCOCC3C#N)cn2)c2ncn(C)c2n1 (stereo not shown) [Compound 162, 4-[6-[[5-(6-cyano-4-methylpyridin-3-yl)oxy-3-methylimidazo[4,5-b]pyridin-7-yl]amino]pyridine-3-carbonyl]morpholine-3-carbonitrile] | – |
